For this assay, the target named is T1, human VR1 (Homo sapiens, UniProt Q8NER1).
T1 construct: expressed in transfected cells
The assay can be described thus: Inhibition of Ca2+ entry in cells caused by proton (VR1 agonist). The settings on record: Rat glioma (C6BU1) cells stably expressing human VR1; proton stimulation to pH 5.5; Fura 2-AM fluorescence; read-out: In vitro IC50. In kind it is cell-based. The protocol:
The assay for evaluation of VR1 inhibition by the inventive compounds will be described below. The assay was intended to evaluate in vitro inhibition of Ca^2+ entry in cells caused by proton, one of the VR1 agonists.
Rat glioma (C6BU1) cells stably expressing human VR1 were suspended in 20 mM MES buffer (at pH 6.8, contg. 20 mM 2-morpholinoethanesulfonate (referred to as MES hereinafter), 115 mM NaCl, 5 mM KCl, 1 mM MgCl2 and 14 mM D-glucose) to make a cell density of 1×10^6 cells/mL. A fluorescent dye, Fura 2-AM solution (Dojindo Corporate, Cat. No. 343-05401) was added to the suspension to make a 5 μM concentration thereof. Further, Pluronic F-127 (Wako Pure Chemical Industries, Ltd., Cat. No. P6866) was added to make a 0.1% content thereof. Then, the suspension was incubated at 37° C. for 30 min. The cells were harvested and washed three times with 20 mM MES buffer. The cells were suspended again to make a cell density of 5×10^5 cells/mL. A 500-μL portion of the suspension was taken with a cuvette (MC MEDICAL, INC., Cat. No. SSR3121), to which […] MES buffer containing 250 mM CaCl2 was added to incorporate Ca^2+ into the cells. At the same time, 5 μL of a test compound solution (in a range of 100 μM to 10 nM in DMSO) was also added to provide a final concentration thereof in a range of 1 μM to 0.1 nM. Alternatively, 5 μl of DMSO was added as control to provide a final concentration of 1% DMSO. The suspension was set in an intracellular ionometer (CAF-110; JASCO) 10 min after those additions. The cells were stimulated with protons by addition of 60 μL of 20 mM MES buffer at pH 1.1 to the suspension to set its pH at 5.5. The activity of the test compound was determined as a difference between the minimum of fluorescence intensity before agonist stimulation and its maximum after the stimulation. The value of IC50 was derived from percentage of inhibition by the test compound compared with the control.

Results on 31 compounds are retold here after patent US20120115827A1, “3-AMINOBENZAMIDE COMPOUNDS AND VANILLOID RECEPTOR SUBTYPE 1 (VR1) INHIBITORS” (Japan Tobacco Inc., priority 2004, published 2012).

Structures are written as SMILES. Counter-ions that a name gives are not always drawn. Where only a bound is given, the exact number is not on record here.

T1 sequence (Q8NER1 whole entry): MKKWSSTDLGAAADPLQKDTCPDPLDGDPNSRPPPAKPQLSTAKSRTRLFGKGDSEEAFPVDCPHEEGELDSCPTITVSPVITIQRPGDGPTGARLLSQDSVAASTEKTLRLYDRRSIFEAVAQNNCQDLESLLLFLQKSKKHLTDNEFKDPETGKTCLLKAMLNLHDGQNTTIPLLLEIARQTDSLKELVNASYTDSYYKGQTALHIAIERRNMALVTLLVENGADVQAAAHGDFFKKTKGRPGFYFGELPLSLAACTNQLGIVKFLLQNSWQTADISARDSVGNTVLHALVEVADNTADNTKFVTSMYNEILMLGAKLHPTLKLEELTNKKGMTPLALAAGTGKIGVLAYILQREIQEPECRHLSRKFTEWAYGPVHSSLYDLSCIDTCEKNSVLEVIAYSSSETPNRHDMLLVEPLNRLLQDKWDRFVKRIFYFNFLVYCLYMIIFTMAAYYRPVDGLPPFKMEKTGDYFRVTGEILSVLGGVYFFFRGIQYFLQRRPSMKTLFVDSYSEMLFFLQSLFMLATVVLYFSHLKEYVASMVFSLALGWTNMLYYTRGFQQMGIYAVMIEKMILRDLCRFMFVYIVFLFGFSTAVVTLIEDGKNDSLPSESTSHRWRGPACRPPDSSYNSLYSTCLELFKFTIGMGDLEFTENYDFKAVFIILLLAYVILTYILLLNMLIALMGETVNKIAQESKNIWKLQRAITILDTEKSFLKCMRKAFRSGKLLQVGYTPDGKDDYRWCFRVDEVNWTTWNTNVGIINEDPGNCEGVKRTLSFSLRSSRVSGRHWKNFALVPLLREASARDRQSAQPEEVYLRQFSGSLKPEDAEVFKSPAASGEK

On to `COc1ccc(C(=O)Nc2ccc(OCC(C)C)cc2)cc1N(CCO)c1ncccc1Cl` [Example 50, 3-[N-(3-chloropyridin-2-yl)-N-(2-hydroxyethyl)amino]-N-(4-isobutyloxyphenyl)-4-methoxy-benzamide], for which the IC50 (usually the concentration needed to halve the response being measured) is at most 100 nM.

For `COc1ccc(C(=O)Nc2ccc(OCC(C)C)cc2)cc1N(CCO)c1ccc(C)cn1` [Example 51, N-(4-isobutyloxyphenyl)-4-methoxy-3-[N-(5-methylpyridin-2-yl)-N-(2-hydroxyethyl)amino]-benzamide], the IC50 is at most 100 nM.

In the case of `CN(c1cc(C(=O)Nc2ccc(C(C)(C)C)cc2)ccc1OCC(N)=O)c1ncccc1Cl` [Example 20, N-(4-tert-butylphenyl)-4-carbamoylmethyloxy-3-[N-(3-chloropyridin-2-yl)-N-methyl-amino]benzamide], the IC50 is at most 100 nM.

Take `CNC(=O)CN(c1cc(C(=O)Nc2ccc(C(F)(F)F)cc2)ccc1Cl)c1ncccc1Cl` [Example 66, 4-chloro-3-[N-(3-chloropyridin-2-yl)-N-(N-methylcarbamoylmethyl)amino]-N-(4-trifluoromethylphenyl)-benzamide]: the IC50 was at most 100 nM.

Turning to `CCN(c1cccc(C(=O)Nc2ccc(C(C)(C)C)cc2)c1)c1ncccc1Cl` [Example 3, N-(4-tert-butylphenyl)-3-[N-(3-chloropyridin-2-yl)-N-ethyl-amino]benzamide], the IC50 was at most 100 nM.

With `O=C(Nc1ccc(C(F)(F)F)cc1)c1ccc(Cl)c(N(CCO)c2ncccc2Cl)c1` [Example 31, 4-chloro-3-[N-(3-chloropyridin-2-yl)-N-(2-hydroxyethyl)amino]-N-(4-trifluoromethylphenyl)-benzamide, hydrochloride salt], the IC50 was at most 100 nM.

Consider `CN1c2cc(C(=O)Nc3ccc(C(C)(C)C)cc3)ccc2Oc2cccnc21` [Example 17, N-(4-tert-butylphenyl)-10-methyl-10H-benzo[b]pyrido[2,3-e][1,4]oxazine-8-carboxamide], for which the IC50 was at most 100 nM.

Take `COCOc1ccc(C(=O)Nc2ccc(C(C)(C)C)cc2)cc1N(C)c1ncccc1Cl` [Example 14, N-(4-tert-butylphenyl)-3-[N-(3-chloropyridin-2-yl)-N-methyl-amino]-4-methoxymethyloxybenzamide]: the IC50 is at most 100 nM.

For `CN(c1cc(C(=O)Nc2ccc(C(C)(C)C)cc2)ccc1Oc1ccccc1)c1ncccc1Cl` [Example 5, N-(4-tert-butylphenyl)-3-[N-(3-chloropyridin-2-yl)-N-methyl]amino-4-phenoxybenzamide], the half-inhibitory concentration (IC50) is at most 100 nM.

`COc1ccc(C(=O)Nc2ccc(C(C)(C)C)cc2)cc1N(c1ncccc1Cl)C(C)C` [Example 11, N-(4-tert-butylphenyl)-3-[N-(3-chloropyridin-2-yl)-N-isopropyl]amino-4-methoxybenzamide]: the IC50 was at most 100 nM.

`CC(C)(C)c1ccc(NC(=O)c2ccc(Cl)c(N(CC(=O)O)c3ncccc3Cl)c2)cc1` [Example 46, N-(3-chloropyridin-2-yl)-N-{2-chloro-5-[N-(4-tert-butylphenyl)carbamoyl]phenyl}-aminoacetic acid]: the IC50 was at most 100 nM.

Consider `Cc1ccc(C(=O)Nc2ccc(C(F)(F)F)cc2)cc1N(CC(N)=O)c1ncccc1Cl` [Example 63, 3-[N-(3-chloropyridin-2-yl)-N-(carbamoylmethyl)amino]-4-methyl-N-(4-trifluoromethylphenyl)-benzamide], for which the concentration for half-maximal inhibition (IC50) was at most 100 nM.

In the case of `CN(c1cccc(C(=O)Nc2ccc(C(C)(C)C)cc2)c1)c1ncccc1Cl` [Example 1, N-(4-tert-butylphenyl)-3-[N-(3-chloropyridin-2-yl)-N-methyl-amino]benzamide, hydrochloride salt], the IC50 was at most 100 nM.

For the compound `Cc1ccc(C(=O)Nc2ccc(OCC(C)C)cc2)cc1N(CC(N)=O)c1ncccc1Cl` [Example 65], the 50% inhibitory concentration (IC50) is at most 100 nM.

In the case of `CC(C)COc1ccc(NC(=O)c2ccc(Cl)c(N(CC(N)=O)c3ncccc3Cl)c2)cc1` [Example 61, 4-chloro-3-[N-(3-chloropyridin-2-yl)-N-(carbamoylmethyl)amino]-N-(4-isobutyloxyphenyl)-benzamide], the IC50 is at most 100 nM.

Consider `CC(C)(C)c1ccc(NC(=O)c2ccc(Cl)c(N(CCO)c3ncccc3Cl)c2)cc1` [Example 30, N-(4-tert-butylphenyl)-4-chloro-3-[N-(3-chloropyridin-2-yl)-N-(2-hydroxyethyl)amino]benzamide], for which the half-maximal inhibitory concentration (IC50) was at most 100 nM.

On to `COc1c(C(=O)Nc2ccc(C(C)(C)C)cc2)cccc1N(C)c1ncccc1Cl` [Example 26, N-(4-tert-butylphenyl)-3-[N-(3-chloropyridin-2-yl)-N-methyl]amino-2-methoxybenzamide], for which the IC50 was at most 100 nM.

As for `CC(C)Oc1ccc(C(=O)Nc2ccc(C(C)(C)C)cc2)cc1N(C)c1ncccc1Cl` [Example 16, N-(4-tert-butylphenyl)-3-[N-(3-chloropyridin-2-yl)-N-methyl-amino]-4-isopropoxybenzamide], the IC50 was at most 100 nM.

For the compound `O=C(Nc1ccc(Cl)c(C(F)(F)F)c1)c1ccc(Cl)c(N(CCO)c2ncccc2Cl)c1` [Example 39, 4-chloro-3-[N-(3-chloropyridin-2-yl)-N-(2-hydroxyethyl)amino]-N-(4-chloro-3-trifluoromethylphenyl)benzamide], the IC50 is at most 100 nM.

Turning to `CN(c1cc(C(=O)Nc2ccc(C(F)(F)F)cc2)ccc1Cl)c1ncc(CO)cc1Cl` [Example 79, 4-chloro-3-[N-(3-chloro-5-hydroxymethylpyridin-2-yl)-N-methyl-amino]-N-(4-trifluoromethylphenyl)-benzamide], the IC50 was at most 100 nM.

As for `CC(C)COc1ccc(NC(=O)c2ccc(Cl)c(N(CCO)c3ncccc3Cl)c2)cc1C(=O)N(C)C` [Example 56, 4-chloro-3-[N-(3-chloropyridin-2-yl)-N-(2-hydroxyethyl)amino]-N-(3-dimethylcarbamoyl-4-isobutyloxyphenyl)-benzamide], the IC50 is at most 100 nM.

Take `CC(C)(C)c1ccc(NC(=O)c2ccc(Cl)c(N(CCCO)c3ncccc3Cl)c2)cc1` [Example 45, 4-chloro-3-[N-(3-chloropyridin-2-yl)-N-(3-hydroxypropyl)amino]-N-(4-tert-butylphenyl)-benzamide]: the IC50 is at most 100 nM.

For the compound `CC(C)(C)c1ccc(NC(=O)c2ccc(Cl)c(N(CC(N)=O)c3ncccc3Cl)c2)cc1` [Example 47, 4-chloro-3-[N-(3-chloropyridin-2-yl)-N-(carbamoylmethyl)amino]-N-(4-tert-butylphenyl)-benzamide], the IC50 was at most 100 nM.

For `CN(c1cc(C(=O)Nc2ccc(C(C)(C)C)cc2)ccc1Cl)c1ncccc1Cl` [Example 12, N-(4-tert-butylphenyl)-4-chloro-3-[N-(3-chloropyridin-2-yl)-N-methyl-amino]benzamide], the IC50 is at most 100 nM.

`NC(=O)CN(c1cc(C(=O)Nc2ccc(C(F)(F)F)cc2)ccc1Cl)c1ncccc1Cl` [Example 59, 4-chloro-3-[N-(3-chloropyridin-2-yl)-N-(carbamoylmethyl)amino]-N-(4-trifluoromethylphenyl)-benzamide]: the concentration for half-maximal inhibition (IC50) was at most 100 nM.

For the compound `CN(c1cccc(C(=O)Nc2ccc(C(C)(C)C)cc2)c1)c1ccccc1Cl` [Example 33, N-(4-tert-butylphenyl)-3-[N-(2-chlorophenyl)-N-methyl-amino]benzamide], the IC50 was at most 100 nM.

Consider `O=C(Nc1ccc(C(F)(F)F)cc1)c1cccc(N(CCO)c2ncccc2Cl)c1` [Example 54, 3-[N-(3-chloropyridin-2-yl)-N-(2-hydroxyethyl)amino]-N-(4-trifluoromethylphenyl)-benzamide], for which the IC50 is at most 100 nM.

For the compound `COc1ccc(C(=O)Nc2ccc(C(C)(C)C)cc2)cc1N(C)c1ncccc1Cl` [Example 4, N-(4-tert-butylphenyl)-3-[N-(3-chloropyridin-2-yl)-N-methyl]amino-4-methoxybenzamide], the IC50 was at most 100 nM.

On to `O=C(Nc1ccc(OC(F)(F)F)cc1)c1ccc(Cl)c(N(CCO)c2ncccc2Cl)c1` [Example 32, 4-chloro-3-[N-(3-chloropyridin-2-yl)-N-(2-hydroxyethyl)amino]-N-(4-trifluoromethoxyphenyl)benzamide, hydrochloride salt], for which the IC50 is at most 100 nM.

As for `CNC(=O)CN(c1cc(C(=O)Nc2ccc(C(C)(C)C)cc2)ccc1Cl)c1ncccc1Cl` [Example 48, 4-chloro-3-[N-(3-chloropyridin-2-yl)-N-(N-methylcarbamoylmethyl)amino]-N-(4-tert-butylphenyl)-benzamide], the IC50 was at most 100 nM.

For `COCCN(c1cc(C(=O)Nc2ccc(C(C)(C)C)cc2)ccc1Cl)c1ncccc1Cl` [Example 29, N-(4-tert-butylphenyl)-4-chloro-3-[N-(3-chloropyridin-2-yl)-N-(2-methoxyethyl)amino]benzamide], the IC50 is at most 100 nM.
